Results published in patent US20070134693A1, “Method for modulating the binding activity of a novel ICAM-3 binding receptor on sinusoidal endothelial cells in liver and lymph nodes” (priority 2000, published 2007).

Legend:
Format in all cases: cell-based
L-SIGN [1] = molecular target: T1, L-SIGN (Homo sapiens, UniProt Q9H2X3); experiment: HIV-1 enhancement assay, pseudotyped HIV-1 ADA, HEK293T cells expressing L-SIGN co-cultured with activated T cells; conditions: preincubation 20 μg/ml, after two days, FIG. 5B
T1 construct: The L-SIGN cDNA clone isolated from placental mRNA contained the entire coding region of the gene; expressed in transfected cells
T1 sequence (Q9H2X3 1-376 isoform Q9H2X3-8): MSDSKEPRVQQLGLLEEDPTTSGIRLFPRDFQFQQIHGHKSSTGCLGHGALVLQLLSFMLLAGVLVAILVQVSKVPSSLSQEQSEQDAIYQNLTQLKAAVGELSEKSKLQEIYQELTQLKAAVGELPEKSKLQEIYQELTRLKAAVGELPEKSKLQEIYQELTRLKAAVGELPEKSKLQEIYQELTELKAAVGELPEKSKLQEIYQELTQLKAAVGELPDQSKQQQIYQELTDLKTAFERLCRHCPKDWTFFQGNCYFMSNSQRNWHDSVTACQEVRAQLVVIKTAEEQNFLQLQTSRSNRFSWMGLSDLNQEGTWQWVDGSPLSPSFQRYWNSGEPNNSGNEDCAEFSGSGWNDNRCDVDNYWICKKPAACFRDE
Description: (§1) FIG. 5. L-SIGN captures and enhances infection of T cells with HIV-1 in trans. (A) L-SIGN captures HIV-1 and transmits it to target cells. Stable DC-SIGN or L-SIGN expressing THP-1 transfectants were pre-incubated with HIV-luc/JRFL pseudovirions to allow capture of the virus. Cells were washed and THP-1 transfectants were co-cultured with Hut/CCR5 target cells. Cell lysates were obtained after 3 days and analyzed for luciferase activity. For each of the co-culture conditions employed, mock infected controls were uniformly less than 100 counts per second in activity. Each data set represents the mean of four separate wells of infected cells. One representative experiment out of two is shown. […] Infectivity was determined after two days by measuring luciferase activity. […] Culture supernatants were collected at day 14 after K562-T cell co-culture and HIV-1 production was measured using ELISA to determine p24 antigen levels. […]
(§2) The infection assays were performed as described previously (Geijtenbeek, 2000a, supra; Geijtenbeek 2000b, supra). […] Viral stocks were evaluated by limiting dilution on GHOST CXCR4/CCR5 and 293T-CD4-CCR5 cells.
(§3) In contrast, HIV-1 enhancement assays utilized suboptimal concentrations of virus (typically <0.05 m.o.i.) without a wash step. […] Cell lysates were obtained after several days and analyzed for either luciferase activity or p24 antigen levels. […]

DC-SIGN [2] = molecular target: T2, DC-SIGN (Homo sapiens, UniProt Q9NNX6); experiment: Fluorescent beads adhesion assay, K562-DC-SIGN cells; conditions: for inhibition of adhesion of ICAM-3-coated fluorescent beads to DC-SIGN: FIG. 4A; for inhibition of adhesion of HIV-1 gp120-coated fluorescent beads to DC-SIGN: FIG. 4B
T2 construct: expressed in transfected cells
T2 sequence (Q9NNX6 1-404): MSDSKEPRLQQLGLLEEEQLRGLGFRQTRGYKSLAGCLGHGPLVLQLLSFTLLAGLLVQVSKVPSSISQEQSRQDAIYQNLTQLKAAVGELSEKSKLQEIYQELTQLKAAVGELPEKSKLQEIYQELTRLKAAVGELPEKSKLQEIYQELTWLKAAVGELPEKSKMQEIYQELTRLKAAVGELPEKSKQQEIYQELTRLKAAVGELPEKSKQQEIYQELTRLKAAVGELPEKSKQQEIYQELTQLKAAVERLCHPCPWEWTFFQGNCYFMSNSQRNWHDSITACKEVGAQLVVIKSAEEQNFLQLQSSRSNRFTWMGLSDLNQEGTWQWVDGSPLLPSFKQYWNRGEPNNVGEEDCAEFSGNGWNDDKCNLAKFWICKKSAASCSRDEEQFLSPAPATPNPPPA
Description: (§4) FIG. 4. L-SIGN binds ICAM-3 (A) and HIV-1 gp120 (B). Adhesion of ICAM-3 and gp120 to the K562-L-SIGN and K562-DC-SIGN cells was measured with the fluorescent bead adhesion assay (Geijtenbeek, T. B. et al., 1999, Blood 94:754-764). The y-axis represents the percent cells binding ligand-coated fluorescent beads. The L-SIGN-cross-reacting mAb AZN-D2 (20 μg/ml) and AZN-D3 (20 μg/ml) inhibit the adhesion of ICAM-3 and gp120 to L-SIGN, in contrast to the DC-SIGN-specific mAb AZN-D1 (20 μg/ml). […] Adhesion of both ligands to mock transfectants was less than 5%. One representative experiment out of three is shown (SD<5%).
(§5) Carboxylate-modified TransFluorSpheres (488/645 nm, 1.0 μm; Molecular Probes, Eugene, Oreg.) were coated with ICAM-3 as was previously described for ICAM-1 (Geijtenbeek, T. B. et al., 1999, Blood 94:754-764). Fluorescent beads were coated with M-tropic HIV-1MN envelope glycoprotein gp120 as follows: Streptavidin-coated fluorescent beads were incubated with biotinylated F(ab′)2 fragment rabbit anti-sheep IgG (6 μg/ml; Jackson Immunoresearch) followed by an overnight incubation with sheep-anti-gp120 antibody D7324 (Aalto Bio Reagents Ltd, Dublin, Ireland) at 4° C. The beads were washed and incubated with 250 ng/ml purified HIV-1 gp120 (provided by Immunodiagnostics, Inc through the NIH AIDS Research and Reference Reagent Program) overnight at 4° C.
(§6) The fluorescent beads adhesion assay was performed as described by Geijtenbeek et al.(l999, supra). Briefly, cells were resuspended in adhesion buffer (20 mM Tris-HCl pH 8.0, 150 mM NaCl, 1 mM CaCl2, 2 mM MgCl2, 0.5% BSA) at a final concentration of 5×10^6 cells/ml. 50,000 cells were pre-incubated with mAb (20 μg/ml) for 10 min at room temperature. Ligand-coated fluorescent beads (20 beads/cell) were added and the suspension was incubated for 30 min at 37° C. Adhesion was determined by measuring the percentage of cells that bound fluorescent beads using flow cytometry on a FACScan (Becton Dickinson, Oxnard, Calif.).

L-SIGN [3] = molecular target: T1, L-SIGN; experiment: Fluorescent beads adhesion assay, K562-L-SIGN cells; conditions: for inhibition of adhesion of ICAM-3-coated fluorescent beads to L-SIGN: FIG. 4A; for inhibition of adhesion of HIV-1 gp120-coated fluorescent beads to L-SIGN: FIG. 4B
Description: as §4, §5, §6

DC-SIGN [4] = molecular target: T2, DC-SIGN; experiment: HIV-1 enhancement assay, pseudotyped HIV-1 ADA, HEK293T cells expressing DC-SIGN co-cultured with activated T cells; conditions: preincubation 20 μg/ml, after two days, FIG. 5B
Description: as §1, §2, §3

Compound | inhibition of L-SIGN-mediated enhancement of HIV-1 infection of T cells in trans (luciferase activity) (L-SIGN [1]) | inhibition of adhesion of ICAM-3-coated fluorescent beads to DC-SIGN (DC-SIGN [2]; 20 μg/ml) | inhibition of adhesion of HIV-1 gp120-coated fluorescent beads to DC-SIGN (DC-SIGN [2]; 20 μg/ml) | inhibition of adhesion of ICAM-3-coated fluorescent beads to L-SIGN (L-SIGN [3]; 20 μg/ml) | inhibition of adhesion of HIV-1 gp120-coated fluorescent beads to L-SIGN (L-SIGN [3]; 20 μg/ml) | inhibition of DC-SIGN-mediated enhancement of HIV-1 infection of T cells in trans (luciferase activity) (DC-SIGN [4]) | inhibition of adhesion of ICAM-3-coated fluorescent beads to DC-SIGN (DC-SIGN [2]; 5 mM) | inhibition of adhesion of HIV-1 gp120-coated fluorescent beads to DC-SIGN (DC-SIGN [2]; 5 mM) | inhibition of adhesion of ICAM-3-coated fluorescent beads to L-SIGN (L-SIGN [3]; 5 mM) | inhibition of adhesion of HIV-1 gp120-coated fluorescent beads to L-SIGN (L-SIGN [3]; 5 mM)
mannan | efficiently inhibited | inhibited | inhibited | inhibited | inhibited | efficiently inhibited | – | – | – | –
O=C(O)CN(CCOCCOCCN(CC(=O)O)CC(=O)O)CC(=O)O [EGTA] | – | – | – | – | – | – | inhibited | inhibited | inhibited | inhibited
